From ChEMBL document CHEMBL1141976, “Discovery of 2,3,5-trisubstituted pyridine derivatives as potent Akt1 and Akt2 dual inhibitors” (Bioorg Med Chem Lett, 2005)

How the values were obtained:
[1] = molecular target: RAC-alpha serine/threonine-protein kinase (Homo sapiens, UniProt P31749); test: Inhibitory concentration against Akt1 kinase
[2] = molecular target: RAC-gamma serine/threonine-protein kinase (Homo sapiens, UniProt Q9Y243); test: Inhibitory concentration against Akt3 kinase
[3] = Inhibitory concentration against Akt2 kinase; set-up: species or system Homo sapiens

Chain of RAC-alpha serine/threonine-protein kinase (P31749 whole entry): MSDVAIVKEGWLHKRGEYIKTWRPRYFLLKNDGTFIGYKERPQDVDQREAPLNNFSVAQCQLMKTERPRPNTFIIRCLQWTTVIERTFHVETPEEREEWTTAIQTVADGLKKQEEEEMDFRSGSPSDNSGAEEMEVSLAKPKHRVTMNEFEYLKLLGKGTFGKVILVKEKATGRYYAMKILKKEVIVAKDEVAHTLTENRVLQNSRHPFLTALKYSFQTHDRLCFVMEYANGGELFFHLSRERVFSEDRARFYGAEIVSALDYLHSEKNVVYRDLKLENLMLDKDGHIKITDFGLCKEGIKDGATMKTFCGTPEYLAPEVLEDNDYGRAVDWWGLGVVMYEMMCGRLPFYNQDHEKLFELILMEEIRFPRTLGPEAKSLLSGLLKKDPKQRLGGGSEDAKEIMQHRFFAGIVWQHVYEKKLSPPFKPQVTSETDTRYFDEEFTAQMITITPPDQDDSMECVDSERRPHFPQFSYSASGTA
Chain of RAC-gamma serine/threonine-protein kinase (Q9Y243 whole entry, looked up): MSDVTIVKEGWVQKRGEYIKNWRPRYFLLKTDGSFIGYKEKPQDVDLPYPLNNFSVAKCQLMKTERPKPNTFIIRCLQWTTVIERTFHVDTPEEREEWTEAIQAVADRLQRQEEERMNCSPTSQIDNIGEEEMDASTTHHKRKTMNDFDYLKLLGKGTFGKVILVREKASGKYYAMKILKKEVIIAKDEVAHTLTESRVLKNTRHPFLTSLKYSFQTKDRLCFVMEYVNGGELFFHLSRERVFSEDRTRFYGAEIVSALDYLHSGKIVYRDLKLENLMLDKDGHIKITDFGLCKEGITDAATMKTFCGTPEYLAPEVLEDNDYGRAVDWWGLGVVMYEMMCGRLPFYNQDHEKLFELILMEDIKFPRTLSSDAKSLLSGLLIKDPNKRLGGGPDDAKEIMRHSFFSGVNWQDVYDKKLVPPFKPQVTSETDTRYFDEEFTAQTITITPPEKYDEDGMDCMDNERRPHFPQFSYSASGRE

Row | SMILES | IC50 [1] | IC50 [2] | IC50 [3]
1 | N#Cc1cnc(-c2ccc(CN3CCC(n4c(=O)[nH]c5ccccc54)CC3)cc2)c(-c2ccccc2)c1 | 0.762 µM | > 50 µM | 3.14 µM
2 | N#Cc1cnc(-c2ccc(CNCc3ccc(-c4csnn4)cc3)cc2)c(-c2ccccc2)c1 | 1.29 µM | > 50 µM | 4.81 µM
3 | Cn1nnnc1-c1cnc(-c2ccc(CN3CCC(n4c(=O)[nH]c5ccccc54)CC3)cc2)c(-c2ccccc2)c1 | 1.77 µM |  | 0.613 µM
4 | Cc1ccc2[nH]c(C3CCN(Cc4ccc(-c5ncc(-c6nn[nH]n6)cc5-c5ccccc5)cc4)CC3)nc2c1 | 0.763 µM | > 50 µM | 0.422 µM
5 | N#Cc1cnc(-c2ccc(CN3CCC(c4nc5cc(F)ccc5[nH]4)CC3)cc2)c(-c2ccccc2)c1 | 0.865 µM | > 50 µM | 6.65 µM
6 | c1ccc(-c2cc(-c3nn[nH]n3)cnc2-c2ccc(CN3CCC(c4nc5ccccc5[nH]4)CC3)cc2)cc1 | 3.32 µM | > 50 µM | 1.5 µM
7 | Cc1ccc2[nH]c(C3CCN(Cc4ccc(-c5ncc(C#N)cc5-c5ccccc5)cc4)CC3)nc2c1 | 2.87 µM | > 50 µM | 11.4 µM
8 | Cc1nc2ccccc2n1C1CCN(Cc2ccc(-c3ncc(C#N)cc3-c3ccccc3)cc2)CC1 | 7.41 µM | > 50 µM | 18.4 µM
9 | O=c1[nH]c2ccccc2n1C1CCN(Cc2ccc(-c3ncc(-c4nnn[nH]4)cc3-c3ccccc3)cc2)CC1 | 0.273 µM | > 50 µM | 0.157 µM
10 | N#Cc1cnc(-c2ccc(CN3CCC(c4nc5ccccc5[nH]4)CC3)cc2)c(-c2ccccc2)c1 | 1.47 µM | > 50 µM | 8.74 µM
11 | c1ccc(-c2cc(-c3nn[nH]n3)cnc2-c2ccc(CN3CCC(n4cnc5ccccc54)CC3)cc2)cc1 | 4.24 µM | > 50 µM | 1.96 µM
12 | Oc1nc2ccccc2n1C1CCN(Cc2ccc(-c3nc4ccccc4cc3-c3ccccc3)cc2)CC1 | 0.365 µM | > 50 µM | 1.21 µM
13 | c1ccc(-c2cc(-c3nn[nH]n3)cnc2-c2ccc(CNCc3ccc(-c4csnn4)cc3)cc2)cc1 | 0.177 µM | > 50 µM | 0.248 µM
14 | Cc1nc2ccccc2n1C1CCN(Cc2ccc(-c3ncc(-c4nn[nH]n4)cc3-c3ccccc3)cc2)CC1 | 6.91 µM | > 50 µM | 2.75 µM
15 | Fc1ccc2[nH]c(C3CCN(Cc4ccc(-c5ncc(-c6nn[nH]n6)cc5-c5ccccc5)cc4)CC3)nc2c1 | 0.239 µM | > 50 µM | 1.72 µM
16 | N#Cc1cnc(-c2ccc(CN3CCC(n4cnc5ccccc54)CC3)cc2)c(-c2ccccc2)c1 | 4.4 µM | > 50 µM | 13 µM
17 | Oc1nc2ccccc2n1C1CCN(Cc2ccc(-c3cc4ccccc4nc3-c3ccccc3)cc2)CC1 | 3.14 µM | > 50 µM | 33.7 µM
